Laboratory results reported in patent US20240041922A1, “METHODS AND COMPOSITIONS” (Monash University, priority 2020, published 2024).
“Also recorded” adds a separate entry of the source. Read-outs that look alike come from different tables or passages of the source.

Key:
[1] = test system: PAX7+ satellite cells; assay: Primary mouse myoblast mono- and co-cultures, PAX7+ satellite cell proliferation (EdU); assay type: cell-based; conditions: for satellite cell proliferation on supplementation: myoblast monoculture (MB) and MB+3T3 co-culture, 24 h
Description: Larvae: Labelling and detection was carried out as previously described (Nguyen, P. D. et al. Muscle stem cells undergo extensive clonal drift during tissue growth via Meox1-mediated induction of G2 cell-cycle arrest. […] Cell culture: Cells were incubated for 1 h in media supplemented with 10 μM EdU. […] Cells were processed using the Click-iTTM EdU Alexa FluroTM 647 imaging Kit (Thermo Fisher) following the manufacturer's protocol. For isolation of primary mouse myoblasts, limb skeletal muscle from E17.5 C57/BL6J mice were minced and digested in 0.125% Trypsin at 37° C. for 20 min. […] Myoblasts were again depleted for fibroblasts prior to co-culturing on gelatin-coated 48 well plates in DMEM+20% FBS+10% L929-conditioned medium. 100,000 myoblasts were plated with either 7,500 MafB/c-Maf deficient (Maf-DKO) macrophages (Aziz, A., Soucie, E., Sarrazin, […]. MafB/c-Maf deficiency enables self-renewal of differentiated functional macrophages. […] For drug treatments, the media were supplemented with appropriate doses and cultured for 24 h.

[2] = test system: wound-resident muscle stem cells; assay: Larval zebrafish needle stab muscle injury, wound site proliferation (EdU); assay type: in vivo
Description: 4dpf larvae were anaesthetized in 0.01% tricaine (MS-222) (Sigma-Aldrich) in Ringer's solution. Mechanical injures were targeted either to the dorsal or ventral myotome above the cloaca when the larvae is oriented dorsal to the top, anterior to the left. Needle-stick injury was carried out as previously described (Gurevich, D. B. el al. Asymmetric division of clonal muscle stem cells co-ordinate muscle regeneration in vivo. Science 353 6295 aad9969 (2016)). Briefly, the myotome was subjected to a single 30-gauge needle puncture that generates an extensive injury with many damaged muscle fibres. For laser-induced injury, anaesthetised larvae were mounted in a thin layer of 1% low-melt agarose in Ringer's solution. Injuries were carried out using a UV-nitrogen laser pulsed through a coumarin 440 nm dye cell coupled to a Zeiss Axioplan microscope (MicroPoint Laser System, Andor Technology). On average a laser injury required pulses for 5-10 sec from laser beams focused through a 40× water immersion objective. For time-lapse analysis of the immediate response to injury, muscle fibre ablations were achieved using a SIM scanner (Olympus) at 790 nm and 200 msec dwell time at 100% laser power on an Olympus FVMPE-RS upright multi-photon microscope equipped with a 25×/1.05 water immersion objective. Injury-responding macrophages were tracked using the manual tracking plugin in Fiji.
Cell ablation was carried out as previously described (Pisharath, H. & Parsons, M. J. in Zebrafish 133-143 (Springer, 2009)) with minor modifications. Larvae at the appropriate stage were incubated in 5-10 mM metronidazole (Mtz) (Sigma-Aldrich) in Ringer's solution and daily refreshed until experimental end point. Drug treatments were carried out by incubating 4 dpf needle stick injured larvae in 5 and 10 μM cenicriviroc (CVC) (Med Chem Express) and 5 and 10 μM maraviroc (MVC) (Med Chem Express) in Ringer's solution immediately post injury and refreshed daily.
The effect of drug treatment on laser ablation muscle injury was assayed by treating larvae with 5 μM CVC for 2 h prior to injury and with larvae being maintained in the drug until experimental end point. […] Chemokine supplementation experiments were carried out in plasticware coated with 0.1% bovine serum albumin (BSA) overnight (rinsed in Ringer's solution prior to use) to minimise protein adsorption. Larvae were treated with 57 nM recombinant human visfatin (hrNAMPT(1)) (PeproTech), 57 nM recombinant murine CCL8/MCP-2 (mrCCL8) (PeproTech) and combinations with Mtz and CVC.
Larvae: Labelling and detection was carried out as previously described (Nguyen, P. D. et al. Muscle stem cells undergo extensive clonal drift during tissue growth via Meox1-mediated induction of G2 cell-cycle arrest. Cell Stem Cell 21, 107-119. e106 (2017))^55 with minor alteration. 6 dpf/2 dpi larvae were pulsed with 2.5 nM EdU (Thermo Fisher) for 1h and chased for a further 1.5 h prior to fixation. Cell culture: Cells were incubated for 1 h in media supplemented with 10 μM EdU. Following Edu pulse, C2C12 cells were fixed immediately, while primary mouse myoblast co-cultures were rinsed in PBS, replaced with media and incubated for a further 2 h following which the cells were fixed. Cells were processed using the Click-iT™ EdU Alexa Fluro™ 647 imaging Kit (Thermo Fisher) following the manufacturer's protocol.

[3] = test system: rectus femoris muscle; conditions: for muscle architecture / regenerated muscle area: delivered in fibrin hydrogel, 10 days post treatment
Description: Injury: male C57BL/6J mice aged between 10-12 weeks were anesthetised and shaved on the hind left leg. A unilateral incision measuring approximately 1 cm was made exposing the underlying fascia. The left hind limb was extended and exteriorised via the incision site by retracting the surrounding tissue. A 3×4 mm full thickness segment of the rectus femoris muscle was removed. Directly after, the injury site was filled with fibrin hydrogel with or without 200 ng or 500 ng of hrNAMPT(1) (hydrogel components; 40 μl, 8 mg/ml human fibrinogen (FIB3, Enzyme Research Laboratories), 4 U/ml bovine thrombin (T4648, Sigma), 5 mM CaCl2, 17 μg/ml of aprotinin (ab146286, Abcam)) which polymerized in the defect. Then, the soft tissue was closed with stitches.
Histology: 10 days after treatment, animals were sacrificed and the wounds were harvested for histological analysis. The defect site and associated proximal and distal segment of the quadriceps muscle (including the rectus femoris, vastus medialis and vastus lateralis) were excised and embedded. Histological analysis was performed on serial paraffin sections (4 μm sections collected passing the central portion of the wound). Multiple sections were stained with Masson's Trichrome (to detect collagen deposition) and the extent of fibrosis (represented by a blue stain) was measured by histomorphometric analysis using ImageJ software (version 1.51h, National Institutes of Health, USA). To maintain uniformity between samples, the length of the vastus medialis taken at multiple depths ranging from 1.0 mm-3.0 mm serves as a reference between tissue sections to determine the depth of sectioning. For fibrotic quantification, average muscle fibrosis area at each depth was scored and normalised with the area of the rectus femoris. Total area of muscle is determined by calculating the average area of rectus femoris at each depth.
Immune cell profiling and PAX7^+ cell quantification with flow cytometry: 4, 6 or 8 days after treatment with either 0.5 μg of hrNAMPT(1) delivered by fibrin hydrogel or control fibrin hydrogel only, mice were euthanised via CO2 asphyxiation. The defect site and associated proximal and distal segment of the quadricep muscles were isolated and placed into 890 μl of complete RPMI (with 10% FBS and 2 mM Glutamax, Life Technologies). The tissue was minced with surgical scissors and 100 μl of 10 mg/ml Collagenase II (Sigma-Aldrich) and 10 μl of 10 mg/ml DNAse I (Biolabs), while 100 μl of dispase II (10 mg/ml) was added into the digestion for PAX7 acquisition. The mixture was vortexed and incubated at 37° C. for 45 min. The collagenase was then inactivated with 500 μl ice-cold PBS, 5% FBS, 5 mM EDTA. The mixture was strained subsequently through 70 μm and 40 μm filters. The cell suspension was further diluted with 1 ml complete RPMI and centrifuged for 10 min at 300× g. The supernatant was discarded and the pellet was resuspended in 250 μl complete RPMI and aliquoted into wells of a 96-well U bottom plate for antibody staining. The cell solutions were centrifuged, supernatant discarded, and washed with PBS. The cell viability stain used was 100 μl of Zombie Aqua (Biolegend) Live-Dead dye diluted in PBS (1:400 dilution) and incubated for 30 min at 4° C. The cells were then blocked with FcX (anti-CD16/32 antibodies, Biolegend, 1 μg/ml) flow cytometry buffer (PBS, 5% FBS). The cells were kept for 20 min at 4° C., washed with flow cytometry buffer and centrifuged. […]

[4] = test system: C2C12 myoblasts; assay: C2C12 myoblast proliferation (EdU incorporation); assay type: cell-based, mouse
Description: Larvae: Labelling and detection was carried out as previously described (Nguyen, P. D. et al. Muscle stem cells undergo extensive clonal drift during tissue growth via Meox1-mediated induction of G2 cell-cycle arrest. […] Cell culture: Cells were incubated for 1 h in media supplemented with 10 μM EdU. […] Cells were processed using the Click-iTTM EdU Alexa FluroTM 647 imaging Kit (Thermo Fisher) following the manufacturer's protocol. The mouse muscle cell line […]. Serial passaging and differentiation of myogenic cells isolated from dystrophic mouse muscle. Nature 270, 725 (1977) were cultured in growth media (Dulbecco's Modified Eagle Medium (4.5 g/l D-Glucose, No L Glutamine, No Sodium Pyruvate (Gibco))+20% Fetal Bovine Solution-One Shot (Gibco)+1% Glut Max 100x (Gibco)). Cells were maintained at 37° C., 5% CO2. Cells at 70% confluence, passage 8 were extracted from T75 flasks with 0.025% Tryspin EDTA (Gibco), neutralised in growth media, spun at 180×g for 5 min to pellet cells. The cells were then resuspended in 10 ml of fresh growth media. 500 μl of cells were plated on a 8-well on cover glass II (Sarstedt) chamber slide at a density of 1×10^3 cells/ml. Cells were left 4 h at 37° C. to re-attach. For drug treatments, the media were supplemented with appropriate doses and cultured for 6 h.

[5] = single dose 0.5 μg in fibrin hydrogel, vs fibrin only

Nicotinamide phosphoribosyltransferase [NAMPT]
satellite cell proliferation on supplementation in presence of macrophages ([1]; MB+macrophage co-culture): did not increase satellite cell proliferation in the presence of macrophages
satellite cell proliferation on supplementation [1]: enhanced proliferation; also recorded: stimulates proliferation of PAX7^+ satellite cells
satellite cell proliferation on supplementation ([1]; listed as hrNAMPT): able to increase the proliferation of satellite cells in MB and MB+3T3 culture conditions
wound site proliferation in macrophage-ablated larvae ([2]; 5 mM Mtz added at 4 dpf/0 dpi): rescues the proliferation deficit generated by ablating macrophages; also recorded: rescues the proliferative deficit that occurs upon macrophage ablation; also recorded: functioned to rescue wound site proliferation in macrophage-ablated larvae
wound site proliferation, NAMPT together with CVC ([2]; Ccr5 inhibited by CVC): failed to rescue the proliferation defect; also recorded: resistant to NAMPT mediated rescue; also recorded: failed to rescue the proliferation deficit when supplemented in conjunction with CVC
increase in wound site proliferation above control response in macrophage-ablated larvae ([2]; macrophages ablated with Mtz): 10.96±3.55%
wound site muscle stem cell proliferation ([2]; needle stab injury, agent alone): specifically enhanced wound-resident muscle stem cell proliferation; also recorded: increases wound site proliferation in control settings
increase in muscle stem cell proliferation within the wound site vs control ([2]; needle stab injury, supplementation): 30.70±4.26%
centrally nucleated muscle fibres ([3]; 6 days post treatment): significant increase the number of centrally nucleated de novo muscle fibres
muscle architecture / regenerated muscle area [3]: significantly increased the regenerated muscle area
muscle architecture / regenerated muscle area ([3]; listed as hrNAMPT): able to fully restore muscle architecture
decrease in average fibrotic area [3, 5]: 34.76±9.32%
increase in average muscle area [3, 5]: 3.276±0.4926 mm^2

O=C(NCC(=O)N1CC[C@H](N[C@H]2CC[C@@](O)(c3ccc(-c4ncccn4)cn3)CC2)C1)c1cccc(C(F)(F)F)c1 [PF-4136309, reference compound]
effect on NAMPT-induced myoblast proliferation ([4]; co-administration with NAMPT, 6 h): does not hinder NAMPT's stimulatory effect on myoblast proliferation
effect on macrophage-stimulated satellite cell proliferation ([1]; MB+macrophage co-culture, 100 nM inhibitor): had no negative effect
effect on NAMPT-stimulated satellite cell proliferation ([1]; with hrNAMPT, 100 nM inhibitor): maintained

mrCCL2: recombinant murine CCL2/MCP-1 (PeproTech), CCR2-specific ligand
myoblast proliferation, factor added alone ([4]; 6 h in growth media): failed to increase proliferative rates beyond that of the control
